Type in all cases: biochemical
One test has as its target T1, Abl kinase (Homo sapiens, UniProt P00519).
T1 sequence (P00519 229-512): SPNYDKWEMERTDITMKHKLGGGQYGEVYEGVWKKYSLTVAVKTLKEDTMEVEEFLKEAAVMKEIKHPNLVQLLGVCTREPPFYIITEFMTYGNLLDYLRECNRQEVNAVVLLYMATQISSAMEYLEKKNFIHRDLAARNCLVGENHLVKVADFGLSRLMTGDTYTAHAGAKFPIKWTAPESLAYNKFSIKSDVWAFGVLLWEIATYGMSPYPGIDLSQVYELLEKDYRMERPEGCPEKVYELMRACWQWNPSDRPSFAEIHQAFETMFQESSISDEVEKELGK
In words: Abl kinase assay A1. The settings on record: for inhibition at 10 µM: read-out: Results, % @ concentration μM, Method A1. Here is the method:
(§1) IC50 values were calculated from a series of percent inhibition values determined at a range of inhibitor concentrations using software routines as implemented in the GraphPad Prism software package.

Another test concerns the target KDR kinase (Homo sapiens, UniProt P35968, DEL940-989/E990V). In words: KDR kinase assay K1. The settings on record: for inhibition at 10 µM: read-out: Results, % @ concentration μM, Method K1. As to the method: as §1
In the next test the target is B-Raf(V599E) kinase (Homo sapiens, UniProt P15056, V600E). Briefly: B-Raf(V599E) kinase assay B1. The settings on record: for inhibition at 1 µM: read-out: Results, % @ concentration μM; for IC50: Method B1, construct 1. As to the method: The test compounds were incubated with the reaction mixture at 30° C. for 2 h. […] The reaction rate was calculated using the 1.5 h to 2.5 h time frame. […] IC50 values were calculated from a series of percent inhibition values determined at a range of inhibitor concentrations using software routines as implemented in the GraphPad Prism software package.
B-Raf(V599E) kinase, sequence (P15056 with tags, fused parts or gaps V600E): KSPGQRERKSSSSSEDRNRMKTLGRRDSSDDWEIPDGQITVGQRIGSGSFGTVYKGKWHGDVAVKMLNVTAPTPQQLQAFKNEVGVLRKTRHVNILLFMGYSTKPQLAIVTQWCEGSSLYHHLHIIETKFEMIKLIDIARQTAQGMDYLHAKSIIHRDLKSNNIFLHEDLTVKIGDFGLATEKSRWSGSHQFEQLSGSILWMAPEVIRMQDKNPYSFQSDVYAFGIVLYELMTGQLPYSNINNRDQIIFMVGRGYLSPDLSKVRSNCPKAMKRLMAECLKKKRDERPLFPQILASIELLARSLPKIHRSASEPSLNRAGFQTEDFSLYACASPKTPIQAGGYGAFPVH

For test [1], the target named is phosphorylated p-38-alpha kinase (Homo sapiens, UniProt Q16539). Briefly: P-38 alpha kinase assay P1. The settings on record: Method P1; 2 h pre-incubation before ATP.
phosphorylated p-38-alpha kinase, sequence (Q16539 1-360 isoform Q16539-2): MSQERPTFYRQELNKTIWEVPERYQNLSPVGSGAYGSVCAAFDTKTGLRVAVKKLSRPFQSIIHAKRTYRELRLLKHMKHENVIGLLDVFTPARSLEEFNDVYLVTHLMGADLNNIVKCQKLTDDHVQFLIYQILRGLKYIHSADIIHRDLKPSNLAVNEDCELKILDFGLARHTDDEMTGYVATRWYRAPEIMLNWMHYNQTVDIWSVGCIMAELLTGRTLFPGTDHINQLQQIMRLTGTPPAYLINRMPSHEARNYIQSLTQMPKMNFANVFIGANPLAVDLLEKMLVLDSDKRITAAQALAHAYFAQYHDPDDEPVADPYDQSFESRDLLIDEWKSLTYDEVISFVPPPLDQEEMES
Test [2] deals with T2, phospho p-38 alpha kinase (Homo sapiens, UniProt Q16539).
T2 construct: purchased Panvera
T2 sequence (Q16539 whole entry): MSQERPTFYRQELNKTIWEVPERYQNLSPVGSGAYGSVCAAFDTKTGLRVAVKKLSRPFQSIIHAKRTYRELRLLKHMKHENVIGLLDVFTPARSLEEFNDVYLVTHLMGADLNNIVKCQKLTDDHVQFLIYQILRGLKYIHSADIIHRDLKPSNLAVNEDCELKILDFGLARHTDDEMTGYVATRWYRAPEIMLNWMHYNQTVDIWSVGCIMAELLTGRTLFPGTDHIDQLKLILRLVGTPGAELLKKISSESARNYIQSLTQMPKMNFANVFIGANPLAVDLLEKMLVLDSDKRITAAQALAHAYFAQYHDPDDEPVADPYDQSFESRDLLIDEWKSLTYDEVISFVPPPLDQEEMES
Briefly: P-38 alpha kinase assay (spectrophotometric, pyruvate kinase/lactate dehydrogenase coupled). Conditions: Table 5; assay not named; read-out: uM.

The mark [3] stands for this setting: Method A1, read-out: Results, μM (IC50).

We go through 16 compounds from patent US20090312349A1, “ANTI-INFLAMMATORY MEDICAMENTS” (priority 2004, published 2009).

Like-named read-outs stand apart in the source and are kept apart here.

KDR kinase, sequence (P35968 with tags, fused parts or gaps DEL940-989/E990V): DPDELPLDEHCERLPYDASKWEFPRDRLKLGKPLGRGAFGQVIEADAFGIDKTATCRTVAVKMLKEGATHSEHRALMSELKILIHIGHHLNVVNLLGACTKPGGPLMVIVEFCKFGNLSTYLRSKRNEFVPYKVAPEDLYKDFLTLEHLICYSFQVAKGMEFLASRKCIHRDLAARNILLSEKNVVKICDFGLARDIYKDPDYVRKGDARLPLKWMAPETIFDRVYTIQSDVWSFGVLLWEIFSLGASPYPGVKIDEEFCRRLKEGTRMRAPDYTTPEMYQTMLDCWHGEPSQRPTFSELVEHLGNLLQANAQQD

Consider `O=C(O)Cc1cccc(-n2nc(-c3ccccc3F)cc2NC(=O)Nc2cccc(Cl)c2Cl)c1` [Example 433, 2-(3-(5-(3-(2,3-dichlorophenyl)ureido)-3-(2-fluorophenyl)-1H-pyrazol-1-yl)phenyl)acetic acid], for which the inhibition at 10 µM at Abl kinase (@ 10 μM) is 39%; at KDR kinase (@ 10 μM), 63%. For the same compound, the inhibition at 1 µM at B-Raf(V599E) kinase was found to be 37%. The IC50 in test [1] turned out to be 0.007 µM.
`O=C(O)Cc1cccc(-n2nc(C3CCCC3)cc2NC(=O)Nc2cccc(Cl)c2Cl)c1` [Example 434, 2-(3-(3-cyclopentyl-5-(3-(2,3-dichlorophenyl)ureido)-1H-pyrazol-1-yl)phenyl)acetic acid]: the IC50 at Abl kinase (setting [3]) was found to be 3.9 µM; against KDR kinase (Method K1), 2.9 µM; at B-Raf(V599E) kinase, 0.006 µM; in test [2] it was 1.9 µM; in test [1], 0.004 µM.
Take `O=C(O)Cc1ccc(-n2nc(C3CCCC3)cc2NC(=O)Nc2cccc(Cl)c2Cl)cc1` [Example 441, 2-(4-(3-cyclopentyl-5-(3-(2,3-dichlorophenyl)ureido)-1H-pyrazol-1-yl)phenyl)acetic acid]: the inhibition at 10 µM came to 44% on Abl kinase (@ 10 μM) and 62% at KDR kinase (@ 10 μM). Also, the IC50 against B-Raf(V599E) kinase was 0.037 µM; in test [1] it was 0.005 µM.
On to `O=C(Nc1cccc(Cl)c1Cl)Nc1cc(-c2cccs2)nn1-c1cccc(CC(=O)N2CC[C@H](O)C2)c1` [Example 463, 1-(2,3-dichlorophenyl)-3-(1-(3-(2-((S)-3-hydroxypyrrolidin-1-yl)-2-oxoethyl)phenyl)-3-(thiophen-2-yl)-1H-pyrazol-5-yl)urea], for which the inhibition at 10 µM at Abl kinase (@ 10 μM) is 44%; on KDR kinase (@ 10 μM), 47%. The inhibition at 1 µM at B-Raf(V599E) kinase was found to be 23%. Also, the values for the IC50 in test [2] and in test [1] were 0.056 µM and 0.025 µM, respectively.
Take `NC(=O)Cc1ccc(-n2nc(-c3ccccc3F)cc2NC(=O)Nc2cccc(Cl)c2Cl)cc1` [Example 466, 1-(1-(4-(2-amino-2-oxoethyl)phenyl)-3-(2-fluorophenyl)-1H-pyrazol-5-yl)-3-(2,3-dichlorophenyl)urea]: the IC50 at Abl kinase (setting [3]) worked out at 1.2 µM; in test [2], 0.007 µM; in test [1], 0.038 µM. In addition, the inhibition at 10 µM at KDR kinase (@ 10 μM) is 50%. In addition, the inhibition at 1 µM at B-Raf(V599E) kinase stood at 24%.
For the compound `NC(=O)Cc1ccc(-n2nc(C3CCCC3)cc2NC(=O)Nc2cccc(Cl)c2Cl)cc1` [Example 467, 1-(1-(4-(2-amino-2-oxoethyl)phenyl)-3-cyclopentyl-1H-pyrazol-5-yl)-3-(2,3-dichlorophenyl)urea], the IC50 at Abl kinase (setting [3]) was found to be 4.8 µM; against KDR kinase (Method K1), 2.9 µM; at B-Raf(V599E) kinase, 0.032 µM; in test [2], 0.119 µM; in test [1] it was 0.011 µM.
As for `CC(C)(C)c1cc(NC(=O)Nc2cccc(Cl)c2Cl)n(-c2ccc(CC(=O)N3CC[C@H](O)C3)cc2)n1` [Example 478, (S)-1-(3-tert-butyl-1-(4-(2-(3-hydroxypyrrolidin-1-yl)-2-oxoethyl)phenyl)-1H-pyrazol-5-yl)-3-(2,3-dichlorophenyl)urea], the results for the inhibition at 10 µM on Abl kinase (@ 10 μM) and at KDR kinase (@ 10 μM) were 91% and 99%, respectively. Also, the IC50 on B-Raf(V599E) kinase came out at 0.028 µM; in test [1] it was 0.006 µM.
Regarding `CN(C)[C@@H]1CCN(C(=O)Cc2ccc(-n3nc(C(C)(C)C)cc3NC(=O)Nc3cccc(Cl)c3Cl)cc2)C1` [Example 480, (R)-1-(3-tert-butyl-1-(4-(2-(3-(dimethylamino)pyrrolidin-1-yl)-2-oxoethyl)phenyl)-1H-pyrazol-5-yl)-3-(2,3-dichlorophenyl)urea], the inhibition at 10 µM on Abl kinase (@ 10 μM) worked out at 94%; at KDR kinase (@ 10 μM), 92%. At B-Raf(V599E) kinase, this compound displayed an IC50 of 0.029 µM.
On to `CN(C)[C@@H]1CCN(C(=O)Cc2ccc(-n3nc(C(C)(C)C)cc3NC(=O)Nc3cccc(Cl)c3Cl)cc2)C1` [Example 481, (R)-1-(3-tert-butyl-1-(4-(2-(3-(dimethylamino)pyrrolidin-1-yl)-2-oxoethyl)phenyl)-1H-pyrazol-5-yl)-3-(2,3-dichlorophenyl)urea], for which the “Results, % @ concentration μM” value is 93% @10 at Abl kinase (Method A1, @ 10 μM) and 102% @10 at KDR kinase (Method K1, @ 10 μM). Further, the IC50 on B-Raf(V599E) kinase came to 0.041 µM.
`CC(C)(C)c1cc(NC(=O)Nc2cccc(Cl)c2Cl)n(-c2cccc(CN3C(=O)NC(=O)C3=O)c2)n1` [Example 482, 1-(3-tert-butyl-1-(3-((2,4,5-trioxoimidazolidin-1-yl)methyl)phenyl)-1H-pyrazol-5-yl)-3-(2,3-dichlorophenyl)urea]: the IC50 at Abl kinase (setting [3]) turned out to be 3.2 µM; at KDR kinase (Method K1) it was 1.4 µM; against B-Raf(V599E) kinase, 0.0038 µM; in test [2] it was 0.084 µM.
In the case of `NC(=O)Cc1cccc(-c2ccc(C(F)(F)F)cc2NC(=O)Nc2ccc(-c3cccc4c3CNC4=O)cc2)c1` [Example 483, [1,1′-biphenyl]-2′-(3-(4-(1-oxoisoindolin-4-yl)phenyl)ureido)-4′-(trifluoromethyl)-3-acetic acid amide], the IC50 was determined as 11.3 µM on Abl kinase (setting [3]); 0.21 µM against KDR kinase (Method K1); 0.014 µM on B-Raf(V599E) kinase; 0.27 µM in test [2]; 0.027 µM in test [1].
With `CC(C)(C)c1cc(NC(=O)Nc2ccc(F)c(F)c2F)n(-c2ccc(CC(=O)O)cc2)n1` [Example 492, 2-(4-(3-tert-butyl-5-(3-(2,3,4-trifluorophenyl)ureido)-1H-pyrazol-1-yl)phenyl)acetic acid], the figures for the inhibition at 10 µM on Abl kinase (@ 10 μM) and at KDR kinase (@ 10 μM) were 49% and 50%, respectively. In addition, the figures for the IC50 (against B-Raf(V599E) kinase; in test [2]; in test [1]) were 0.028 µM, 0.04 µM and 0.008 µM, respectively.
The like results for `CC(C)(C)c1cc(NC(=O)Nc2cc(F)c(F)cc2F)n(-c2cccc(CC(N)=O)c2)n1` [Example 494, 1-(1-(3-(2-amino-2-oxoethyl)phenyl)-3-tert-butyl-1H-pyrazol-5-yl)-3-(2,4,5-trifluorophenyl)urea] were, in that order, 96%, 82%, 0.007 µM, 0.67 µM and 0.068 µM.
Regarding `CC(C)(C)c1cc(NC(=O)Nc2ccc(F)cc2F)n(-c2cccc(CC(N)=O)c2)n1` [Example 496, 1-(1-(3-(2-amino-2-oxoethyl)phenyl)-3-tert-butyl-1H-pyrazol-5-yl)-3-(2,4-difluorophenyl)urea], the inhibition at 10 µM at Abl kinase (@ 10 μM) amounted to 66%. Moreover, the IC50 was determined as 2.4 µM against KDR kinase (Method K1) and 0.01 µM on B-Raf(V599E) kinase.
In the case of `CC(C)(C)c1cc(NC(=O)Nc2ccc(F)cc2F)n(-c2ccc(CC(=O)O)cc2)n1` [Example 497, 2-(4-(3-tert-butyl-5-(3-(2,4-difluorophenyl)ureido)-1H-pyrazol-1-yl)phenyl)acetic acid], the inhibition at 10 µM worked out at 30% on Abl kinase (@ 10 μM) and 43% on KDR kinase (@ 10 μM). The compound further returned an IC50 at B-Raf(V599E) kinase of 0.045 µM.
On to `CC(C)(C)c1cc(NC(=O)Nc2cccc(Oc3cnccn3)c2)n(-c2cccc(CC(N)=O)c2)n1` [Example 504, 1-(1-(3-(2-amino-2-oxoethyl)phenyl)-3-tert-butyl-1H-pyrazol-5-yl)-3-(3-(pyrazin-2-yloxy)phenyl)urea], for which the IC50 came to 0.063 µM at Abl kinase, 0.049 µM at KDR kinase (Method K1), 0.043 µM against B-Raf(V599E) kinase and 0.082 µM in test [1].
